Test [1] deals with T1, KRas-mediated phosphorylation of ERK in A549 cells (Homo sapiens, UniProt P01116, G12S).
T1 construct: pERK HTRF read-out
In words: Inhibition of KRas-mediated phosphorylation of ERK (HTRF), A549 cells. It counts as cell-based. To be noted: HTRF pERK, 3 h incubation.

Test [2] has as its target T2, KRas-mediated phosphorylation of ERK in MKN1 cells (Homo sapiens, UniProt P01116).
T2 construct: pERK HTRF read-out
Nature of the test: Inhibition of KRas-mediated phosphorylation of ERK (HTRF), MKN1 cells. It counts as cell-based. To be noted: MKN1 cells (KRas WT); HTRF pERK; 3 h incubation. The protocol: Inhibition of KRas Phosphorylation of ERK (HTRF) by Exemplary Compounds of Formula (Ia) or (Ib)
Cisbio HTRF Advanced pERK Assay Catalog #64AERPEH • Cells: MKN1, PSN1 • Procedure: • 1. Day 1: Seed 6,000 cells/well −25 μl/well in 384-well white solid bottom plate; RPM1_10% FBS. Incubate overnight at 37 °C/5% CO2. • 2.
For orientation: In TR-FRET formats the signal depends on donor and acceptor labels being close together.

The target in test [3] is T3, KRas WT (Homo sapiens, UniProt P01116).
T3 construct: Biotinylated KRas (corresponding to amino acids 1-169, produced at Accelegan Inc.); biotin (biotinylated); purchased Accelegan Inc
Nature of the test: KRas binding assay, TR-FRET displacement of Cy5 labelled tracer. Conditions: 60-minute incubation at room temperature, 1% DMSO, pH 7.5. Here is the method: (§1) This Example illustrates that exemplary compounds of the present invention bind to KRas and are capable of displacing a labeled tracer ligand occupying the KRas binding site. KRas^WT, KRas^G12A, KRas^G12C, KRas^G12D, KRas^G12R, KRas^G12S, KRas^G12V, KRas^G13D, or KRas^Q61H was used in the assay.
(§2) The ability of a compound to bind to KRas was measured using a TR-FRET displacement assay. Biotinylated KRas (corresponding to amino acids 1-169, produced at Accelegan Inc.) was incubated with custom made Cy5 labelled tracer, terbium streptavidin (Cisbio Inc.) and compound (1% DMSO final) in buffer (50 mM HEPES, pH 7.5, 5 mM MgCl2, 0.005% Tween-20 and 1 mM DTT). After a 60-minute incubation at room temperature, the reaction was measured using a BMG LABTECH CLARIO star Plus via TR-FRET. […] The POC values were fit to a 4-parameter IC50 equation and the IC50 value reported.

For test [4], the target named is T4, KRas G12S (Homo sapiens, UniProt P01116, G12S).
T4 construct: Biotinylated KRas (corresponding to amino acids 1-169, produced at Accelegan Inc.); biotin (biotinylated); purchased Accelegan Inc
The test is described as above. To be noted: 60-minute incubation at room temperature, 1% DMSO, pH 7.5. The protocol:
as §1, §2

The target in test [5] is T5, KRas G12C (Homo sapiens, UniProt P01116, G12C).
T5 construct: Biotinylated KRas (corresponding to amino acids 1-169, produced at Accelegan Inc.); biotin (biotinylated); purchased Accelegan Inc
Described as above. To be noted: 60-minute incubation at room temperature, 1% DMSO, pH 7.5. The protocol:
as §1, §2

What is called IC50 is the concentration that gives 50% inhibition. A low value points to inhibition by little substance.

T3 sequence (P01116 1-169 isoform P01116-2): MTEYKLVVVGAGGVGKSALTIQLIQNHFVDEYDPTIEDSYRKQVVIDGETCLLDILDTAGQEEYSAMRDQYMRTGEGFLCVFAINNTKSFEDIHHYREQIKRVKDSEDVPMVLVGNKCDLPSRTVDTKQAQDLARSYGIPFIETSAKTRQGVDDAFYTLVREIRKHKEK
T5 sequence (P01116 1-169 isoform P01116-2 G12C): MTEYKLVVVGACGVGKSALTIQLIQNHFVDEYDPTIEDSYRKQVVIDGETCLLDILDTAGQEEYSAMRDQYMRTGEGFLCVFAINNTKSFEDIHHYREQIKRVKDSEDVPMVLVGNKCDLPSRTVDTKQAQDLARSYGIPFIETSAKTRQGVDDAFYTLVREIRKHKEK
T1 sequence (P01116 1-188 isoform P01116-2 G12S): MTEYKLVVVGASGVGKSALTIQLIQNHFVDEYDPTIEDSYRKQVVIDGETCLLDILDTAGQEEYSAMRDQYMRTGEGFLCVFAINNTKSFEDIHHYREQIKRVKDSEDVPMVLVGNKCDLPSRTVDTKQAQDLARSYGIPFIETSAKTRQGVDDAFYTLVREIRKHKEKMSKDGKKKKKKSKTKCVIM
T4 sequence (P01116 1-169 isoform P01116-2 G12S): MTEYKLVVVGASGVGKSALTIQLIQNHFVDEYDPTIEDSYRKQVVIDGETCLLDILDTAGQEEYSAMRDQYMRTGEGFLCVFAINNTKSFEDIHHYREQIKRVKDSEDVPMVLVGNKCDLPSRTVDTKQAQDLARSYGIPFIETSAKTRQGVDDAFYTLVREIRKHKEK
T2 sequence (P01116 1-188 isoform P01116-2): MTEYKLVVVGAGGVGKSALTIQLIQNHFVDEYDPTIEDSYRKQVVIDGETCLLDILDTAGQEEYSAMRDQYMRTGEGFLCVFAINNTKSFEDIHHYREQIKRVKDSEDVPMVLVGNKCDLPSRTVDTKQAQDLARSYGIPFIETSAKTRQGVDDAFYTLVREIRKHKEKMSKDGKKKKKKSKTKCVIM

As for `Cc1ccn(C(=O)[C@H]2CCCN(c3nc(OC[C@@]45CCCN4C[C@H](F)C5)nc4c(F)c(-c5ccc(F)c6sc(N)c(C#N)c56)c(Cl)cc34)CC2)n1` (atropisomer, axis not shown; (aS)) [Example 169, 2-amino-4-((R)-6-chloro-8-fluoro-2-(((2R,7aS)-2-fluorotetrahydro-1H-pyrrolizin-7a(5H)-yl)methoxy)-4-((S)-4-(3-methyl-1H-pyrazole-1-carbonyl)azepan-1-yl)quinazolin-7-yl)-7-fluorobenzo [b]thiophene-3-carbonitrile], the IC50 in test [1] is 534 nM; in test [2], 9480 nM.
On the same counts, the results for `Cc1ccn(C(=O)[C@@H]2CCCN(c3nc(OC[C@@]45CCCN4C[C@H](F)C5)nc4c(F)c(-c5ccc(F)c6sc(N)c(C#N)c56)c(Cl)cc34)CC2)n1` (atropisomer, axis not shown; (aS)) [Example 171, 2-amino-4-((R)-6-chloro-8-fluoro-2-(((2R,7aS)-2-fluorotetrahydro-1H-pyrrolizin-7a(5H)-yl)methoxy)-4-((R)-4-(3-methyl-1H-pyrazole-1-carbonyl)azepan-1-yl)quinazolin-7-yl)-7-fluorobenzo[b]thiophene-3-carbonitrile] are 6440 nM and 3040 nM.
Regarding `O=C(Oc1ccc(F)c(F)c1)[C@@H]1CCN(c2nc(OCC34CCCN3CCC4)nc3c(F)c(-c4cccc5cccc(F)c45)ncc23)C[C@@H]1O` [Example 37, 3,4-difluorophenyl (3R,4R)-1-(8-fluoro-7-(8-fluoronaphthalen-1-yl)-2-((tetrahydro-1H-pyrrolizin-7a(5H)-yl)methoxy)pyrido[4,3-d]pyrimidin-4-yl)-3-hydroxypiperidine-4-carboxylate], the results for the IC50 in test [3], in test [4] and in test [5] were 20400 nM, 20400 nM and 7290 nM, respectively.
As to `O=CC1CCN(c2nc(OCC34CCCN3CCC4)nc3c(F)c(-c4cccc5cccc(F)c45)ncc23)CC1` [Example 38, 1-(8-fluoro-7-(8-fluoronaphthalen-1-yl)-2-((tetrahydro-1H-pyrrolizin-7a(5H)-yl)methoxy)pyrido[4,3-d]pyrimidin-4-yl)piperidine-4-carbaldehyde], the IC50 came out at 19300 nM in test [3], 27900 nM in test [4] and 761 nM in test [5].
Take `COC(=O)C1CCN(c2nc(OCC34CCCN3CCC4)nc3c(F)c(-c4cccc5cccc(F)c45)ncc23)CC1` [Example 41, methyl 1-(8-fluoro-7-(8-fluoronaphthalen-1-yl)-2-((tetrahydro-1H-pyrrolizin-7a(5H)-yl)methoxy)pyrido[4,3-d]pyrimidin-4-yl)piperidine-4-carboxylate]: the IC50 in test [3] turned out to be 12300 nM; in test [4], 17600 nM; in test [5] it was 18200 nM.
For `O=C(Oc1ccc(C(F)(F)F)cc1)C1CCN(c2nc(OCC34CCCN3CCC4)nc3c(F)c(-c4cccc5cccc(F)c45)ncc23)CC1` [Example 42, 4-(trifluoromethyl)phenyl 1-(8-fluoro-7-(8-fluoronaphthalen-1-yl)-2-((tetrahydro-1H-pyrrolizin-7a(5H)-yl)methoxy)pyrido[4,3-d]pyrimidin-4-yl)piperidine-4-carboxylate], in that order: greater than 100000 nM, 68100 nM and 768 nM.
For `O=C(Oc1ccc(F)c(F)c1)C1CCN(c2nc(OCC34CCCN3CCC4)nc3c(F)c(-c4cccc5cccc(F)c45)ncc23)CC1` [Example 43, 3,4-difluorophenyl 1-(8-fluoro-7-(8-fluoronaphthalen-1-yl)-2-((tetrahydro-1H-pyrrolizin-7a(5H)-yl)methoxy)pyrido[4,3-d]pyrimidin-4-yl)piperidine-4-carboxylate], in that order: greater than 100000 nM, 42100 nM and 424 nM.
For `O=C(Oc1ccccc1)C1CCN(c2nc(OCC34CCCN3CCC4)nc3c(F)c(-c4cccc5cccc(F)c45)ncc23)CC1` [Example 44, phenyl 1-(8-fluoro-7-(8-fluoronaphthalen-1-yl)-2-((tetrahydro-1H-pyrrolizin-7a(5H)-yl)methoxy)pyrido[4,3-d]pyrimidin-4-yl)piperidine-4-carboxylate], in that order: greater than 100000 nM, 81100 nM and 1770 nM.
As to `COC(=O)[C@H]1CCN(c2nc(OCC34CCCN3CCC4)nc3c(F)c(-c4cccc5cccc(F)c45)ncc23)C[C@@H]1O` [Example 45, methyl (3R,4S)-1-(8-fluoro-7-(8-fluoronaphthalen-1-yl)-2-((tetrahydro-1H-pyrrolizin-7a(5H)-yl)methoxy)pyrido[4,3-d]pyrimidin-4-yl)-3-hydroxypiperidine-4-carboxylate], the IC50 was 65700 nM in test [3], greater than 100000 nM in test [4] and greater than 100000 nM in test [5].
`COC(=O)[C@H]1CCN(c2nc(OCC34CCCN3CCC4)nc3c(F)c(-c4cccc5cccc(F)c45)ncc23)C[C@H]1O` [Example 46, methyl (3S,4S)-1-(8-fluoro-7-(8-fluoronaphthalen-1-yl)-2-((tetrahydro-1H-pyrrolizin-7a(5H)-yl)methoxy)pyrido[4,3-d]pyrimidin-4-yl)-3-hydroxypiperidine-4-carboxylate]: the IC50 in test [3], in test [4] and in test [5] was greater than 100000 nM each time.
On to `COC(=O)[C@@H]1CCN(c2nc(OCC34CCCN3CCC4)nc3c(F)c(-c4cccc5cccc(F)c45)ncc23)C[C@@H]1O` [Example 47, methyl (3R,4R)-1-(8-fluoro-7-(8-fluoronaphthalen-1-yl)-2-((tetrahydro-1H-pyrrolizin-7a(5H)-yl)methoxy)pyrido[4,3-d]pyrimidin-4-yl)-3-hydroxypiperidine-4-carboxylate], for which the IC50 in test [3], in test [4] and in test [5] was greater than 100000 nM each time.
Regarding `O=C(Oc1ccccc1)C1CCCN(c2nc(OCC34CCCN3CCC4)nc3c(F)c(-c4cccc5cccc(F)c45)ncc23)C1` (stereo not drawn) [Example 51, phenyl 1-(8-fluoro-7-(8-fluoronaphthalen-1-yl)-2-((tetrahydro-1H-pyrrolizin-7a(5H)-yl)methoxy)pyrido[4,3-d]pyrimidin-4-yl)piperidine-3-carboxylate], the IC50 in test [3] stood at 25400 nM; in test [4], 56500 nM; in test [5], 30300 nM.
For `O=C(Oc1ccccc1F)C1CCCN(c2nc(OCC34CCCN3CCC4)nc3c(F)c(-c4cccc5cccc(F)c45)ncc23)C1` (stereo not drawn) [Example 52, 2-fluorophenyl 1-(8-fluoro-7-(8-fluoronaphthalen-1-yl)-2-((tetrahydro-1H-pyrrolizin-7a(5H)-yl)methoxy)pyrido[4,3-d]pyrimidin-4-yl)piperidine-3-carboxylate], in that order: 20200 nM, 27100 nM and 6810 nM.
For `CCc1c(F)ccc2cc(O)cc(-c3ncc4c(N5CCN(C(=O)n6ccc(C)n6)C(C(F)F)C5)nc(OC[C@@]56CCCN5C[C@H](F)C6)nc4c3F)c12` (stereo partly drawn) [Example 125, (2-(difluoromethyl)-4-(7-(8-ethyl-7-fluoro-3-hydroxynaphthalen-1-yl)-8-fluoro-2-(((2R,7aS)-2-fluorotetrahydro-1H-pyrrolizin-7a(5H)-yl)methoxy)pyrido[4,3-d]pyrimidin-4-yl)piperazin-1-yl)(3-methyl-1H-pyrazol-1-yl)methanone], the IC50 in test [1] turned out to be 6810 nM; in test [3] it was 84 nM; in test [4], 168 nM; in test [5], 96 nM.
On the same counts, the results for `CCc1c(F)ccc2cc(O)cc(-c3ncc4c(N5CCN(C(=O)n6ccc(C)n6)C(CC#N)C5)nc(OC[C@@]56CCCN5C[C@H](F)C6)nc4c3F)c12` (stereo partly drawn) [Example 126, 2-(4-(7-(8-ethyl-7-fluoro-3-hydroxynaphthalen-1-yl)-8-fluoro-2-(((2R,7aS)-2-fluorotetrahydro-1H-pyrrolizin-7a(5H)-yl)methoxy)pyrido[4,3-d]pyrimidin-4-yl)-1-(3-methyl-1H-pyrazole-1-carbonyl)piperazin-2-yl) acetonitrile] are 9800 nM, 8 nM, 88 nM and 84 nM.
On to `CCc1c(F)ccc2cc(O)cc(-c3ncc4c(N(C)CCCC(=O)NC(C)=O)nc(OC[C@@]56CCCN5C[C@H](F)C6)nc4c3F)c12` [Example 325, N-acetyl-4-((7-(8-ethyl-7-fluoro-3-hydroxynaphthalen-1-yl)-8-fluoro-2-(((2R,7aS)-2-fluorotetrahydro-1H-pyrrolizin-7a(5H)-yl)methoxy)pyrido[4,3-d]pyrimidin-4-yl)(methyl)amino)butanamide], for which the figures for the half-maximal inhibitory concentration (IC50) in test [3], in test [4] and in test [5] were 23 nM, 14 nM and 12 nM, respectively.

The values are drawn from patent US20260356856A1, “KRAS G12S AND G12C INHIBITORS” (MIRATI THERAPEUTICS, INC., priority 2023, published 2026).
